Assay results as given in patent US20080021034A1, “Compositions and methods for modulating gated ion channels” (PainCeptor Pharma Corporation, priority 2006, published 2008).

Test system: proton-gated ion channels (ASIC)
Assay: Two-electrode voltage clamp in Xenopus laevis oocytes expressing gated ion channels (Xo)
Assay type: cell-based
Details: acidic solution (pH<7) activation
Procedure: Two-electrode voltage clamp electrophysiological assays in Xenopus laevis oocytes expressing gated ion channels are performed as follows:
Oocytes are surgically removed from adult Xenopus laevis and treated for 2 h at room temperature with 1 mg/ml type I collagenase (Sigma) in Barth's solution under mild agitation. Selected oocytes at stage IV-V are defolliculated manually before nuclear microinjection of 2.5-5 ng of a suitable expression vector, such as pCDNA3, comprising the nucleotide sequence encoding a gated ion channel subunit protein. In such an experiment, the oocytes express homomultimeric proton-gated ion channels on their surface. In an alternate experiment, one, two, three or more vectors comprising the coding sequences for distinct gated ion channel subunits are co-injected in the oocyte nuclei. In the latter case, oocytes express heteromultimeric proton-gated ion channels. For example, ASIC2a and/or ASIC3 subunits in pcDNA3 vector are co-injected at a 1:1 cDNA ratio. After 2-4 days of expression at 19° C. in Barth's solution containing […] gentamicin and 1.8 mM CaCl2, gated ion channels are activated by applying an acidic solution (pH<7) and currents are recorded in a two electrode voltage-clamp configuration, using an OC-725B amplifier (Warner Instruments). Currents are acquired and digitized at 500 Hz on an Apple Imac G3 computer with an A/D NB-MIO-16XL interface (National Instruments) and recorded traces are post-filtered at 100 Hz in Axograph (Axon Instruments) (Neher, E. and Sakmann, B. (1976) Nature 260:799-802). Once impaled with the microelectrodes, oocytes are continuously superfused at 10-12 ml/min with a modified Ringer's solution containing 97 mM NaCl, 2 mM KCl, 1.8 mM CaCl2, and 10 mM HEPES brought to pH 7.4 with NaOH (Control Ringer). Test Ringer solution is prepared by replacing HEPES with MES and adjusting the pH to the desired acidic value. Compounds of the present invention are prepared in both the Control and Test Ringer solutions and applied to oocytes at room temperature through a computer-controlled switching valve system. Osmolarity of all solutions is adjusted to 235 mOsm with choline chloride. Similarly, recordings can also be acquired in an automated multichannel oocytes system as the OpusExpress™ (Molecular Devices, Sunnyvale, USA).

Structure (SMILES)	percent effect on acid-evoked current (two-electrode voltage clamp) [%]	Xo: percent binding data [%]
N#CC1=CCC(c2ccccc2)=C2CCNCC12 (stereo not shown) [Compound 4]	< 20	–
CN1CCC2=C(c3ccccc3)CC[C@@H](C(=O)Nc3cccnc3)C2C1 (stereo partly shown) [Compound 19]	< 20	–
CN1CCC2=C(c3ccccc3)CCC(C(=O)Nc3cccc(Cl)c3)C2C1 (stereo not shown) [Compound 12]	< 20	–
CN1CCC2=C(c3ccccc3)CCC(NC(=O)c3ccc(Cl)cc3)C2C1 (stereo not shown) [Compound 35]	< 20	–
CN1CCC2=C(c3ccccc3)CCC(NC(=O)c3cccc(C=O)c3)C2C1 (stereo not shown) [Compound 32]	< 20	–
CN1CCC(O)(/C(=N\Nc2ccccc2)c2ccccc2)CC1 [Compound 46]	< 20	–
CN1CCC2=C(c3ccccc3)CCC(C(=O)O)C2C1 (stereo not shown) [Compound 9]	< 20	–
CCOC(=O)N1CC(c2ccccc2)=C2CCN(C)CC2N1C(=O)OCC (stereo not shown) [Compound 1]	< 20	–
CN1CCC2=C(c3ccccc3)CC[C@@H](C(=O)N(C)C)C2C1 (stereo partly shown) [Compound 16]	< 20	–
CN1CCC2=C(c3ccccc3)CCC(NC(=O)c3ccccc3O)C2C1 (stereo not shown) [Compound 34]	< 20	–
CC(C)(C)OC(=O)N1CCC2=C(c3ccccc3)CC=C(C#N)C2C1 (stereo not shown) [Compound 5]	< 20	–
CN1CCC(O)(/C(=N\NC(=O)c2ccccc2N)c2ccccc2)CC1 [Compound 37]	< 20	–
CN1CCC2=C(c3ccccc3)CCC(NC(=O)c3ccc(/C=N/O)cc3)C2C1 (stereo not shown) [Compound 36]	< 20	–
CN1CCC2=C(c3ccccc3)CC[C@@H](C(=O)Nc3ccccn3)C2C1 (stereo partly shown) [Compound 18]	< 20	–
CN1CC=C(/C(=N\Nc2ccc([N+](=O)[O-])cc2[N+](=O)[O-])c2ccccc2)CC1 [Compound 44]	–	< 20
CN1CCC2=C(c3ccccc3)CC[C@@H](C(=O)Nc3ccccc3Cl)C2C1 (stereo partly shown) [Compound 14]	< 20	–
CCOC(=O)c1cccnc1N/N=C(/c1ccccc1)C1(O)CCN(C)CC1 [Compound 51]	< 20	–
CN1CC[C@@H]2C(=O)c3ccccc3[C@@H]2C1 [Compound 40]	< 20	–
CN1CCC2=C(c3ccccc3)CC[C@@H](C(=O)NCCO)C2C1 (stereo partly shown) [Compound 20]	< 20	–
CN1CCC2=C(c3ccccc3)CCC(NC(=O)c3ccc(/C=N/O)cc3)[C@H]2C1 (stereo partly shown) [Compound 28]	< 20	–
C#CCNC(=O)[C@@H]1CCC(c2ccccc2)=C2CCN(C)CC21 (stereo partly shown) [Compound 15]	< 20	–
CN1CCC2=C(c3ccccc3)CCC(NC(=O)c3ccc(C=O)cc3)C2C1 (stereo not shown) [Compound 33]	< 20	–
CN1CCC(O)(/C(=N\NC(=O)c2ccc(O)cc2O)c2ccccc2)CC1 [Compound 45]	< 20	–
CN1CCC2=C(c3ccccc3)CCC(NC(=O)c3cccc(O)c3)C2C1 (stereo not shown) [Compound 30]	< 20	–
CN1CCC2=C(c3ccccc3)CC[C@@H](C(=O)Nc3ccccc3)C2C1 (stereo partly shown) [Compound 17]	< 20	–
CCOC(=O)N1CC(c2ccccc2)=C2CCN(C(=O)OC(C)(C)C)C[C@@H]2N1C(=O)OCC [Compound 2]	< 20	–
CN1CCC2=C(c3ccccc3)Cn3c(=O)n(C)c(=O)n3C2C1 (stereo not shown) [Compound 56]	< 20	–
CC(=O)N[C@@H]1CCC(c2ccccc2)=C2CCN(C)C[C@@H]21 [Compound 24]	< 20	–

Structure (SMILES)	percent effect on acid-evoked current (two-electrode voltage clamp) [%]	Xo: percent binding data [%]
CN1CCC2=C(c3ccccc3)CCC(N)C2C1 (stereo not shown) [Compound 26]	< 20	–
CN1CCC(O)(/C(=N\Nc2ccc([N+](=O)[O-])cc2[N+](=O)[O-])c2ccccc2)CC1 [Compound 42]	–	< 20
CN1CCC2=C(c3ccccc3)Cn3c(=O)n(-c4ccccc4)c(=O)n3C2C1 (stereo not shown) [Compound 57]	< 20	–
CN1CCC2=C(c3ccccc3)CCC(C(=O)Nc3ccc(Cl)cc3)C2C1 (stereo not shown) [Compound 13]	< 20	–
CN1CCC2=C(c3ccccc3)CC[C@@H]([N+](=O)[O-])[C@H]2C1 [Compound 23]	< 20	–
CC(C)(C)OC(=O)N1CCC2=C(c3ccccc3)CC[C@@H]([N+](=O)[O-])[C@H]2C1 [Compound 31]	< 20	–
CN1CCC2=C(c3ccccc3)CC=C(C#N)[C@H]2C1 [Compound 7]	< 20	–
CN1CCC2=C(c3ccccc3)CC[C@@H](C(=O)N3CCNCC3)[C@H]2C1 [Compound 22]	< 20	–
CN1CCC2=C(c3ccccc3)CC[C@@H](NC(=O)c3ccc(O)cc3)[C@H]2C1 [Compound 29]	–	< 20
CN1CCC(O)(/C(=N\NC(=O)c2cccc(O)c2)c2ccccc2)CC1 [Compound 54]	< 20	–
CCOC(=O)N1NCC(c2ccccc2)=C2CCN(C)CC21 (stereo not shown) [Compound 3]	< 20	–
CCOC(=O)C1=C(Nc2ccccc2)CCN(Cc2ccccc2)C1 [Compound 55]	–	<20
COC(=O)C1=CCC(c2ccccc2)=C2CCN(C(=O)OC(C)(C)C)CC12 (stereo not shown) [Compound 8]	< 20	–
CN1CCC2=C(c3ccccc3)CCC(NC(=O)c3cccc(/C=N/O)c3)[C@H]2C1 (stereo partly shown) [Compound 27]	< 20	–
CN1CCC2=C(c3ccccc3)CC[C@@H](NC(=O)c3ccccc3)[C@H]2C1 [Compound 25]	< 20	–
CCOC(=O)C1CCC(c2ccccc2)=C2CCN(C)CC21 (stereo not shown) [Compound 10]	< 20	–
CN1CCC2=C(c3ccccc3)CC[C@@H](C(=O)NCc3ccccc3)[C@H]2C1 [Compound 21]	< 20	–
CN1CCC(O)(/C(=N\Nc2ccccn2)c2ccccc2)CC1 [Compound 48]	< 20	–
CN1CCC(O)(C(=NNC(N)=O)c2ccccc2)CC1 [Compound 52]	< 20	–
CN1CCC(O)(/C(=N\NC(=O)c2ccco2)c2ccccc2)CC1 [Compound 47]	< 20	–
CN1CC[C@@H]2/C(=N\NC(N)=O)c3ccccc3[C@@H]2C1 [Compound 43]	< 20	–
CN1CC[C@@H]2/C(=N/O)c3ccccc3[C@@H]2C1 [Compound 41]	< 20	–
CN1CC[C@@H]2/C(=N/Nc3ccc([N+](=O)[O-])cc3[N+](=O)[O-])c3ccccc3[C@@H]2C1 [Compound 39]	–	< 20
COC(=O)C1=C(C(=O)OC)C2CN(C(=O)OC(C)(C)C)CCC2=C(c2ccccc2)C1 (stereo not shown) [Compound 6]	< 20	–
CN1CCC2=C(c3ccccc3)CCC(C(=O)OCCO)C2C1 (stereo not shown) [Compound 11]	< 20	–
CN1CCC(O)(/C(=N/N)c2ccccc2)CC1 [Compound 39a]	< 20	–
CN1CCC(O)(/C(=N\NC(=O)c2ccccc2[N+](=O)[O-])c2ccccc2)CC1 [Compound 50]	< 20	–
